Experimental data published in ChEMBL document CHEMBL4765227, “Hit to lead optimization of a series of N-[4-(1,3-benzothiazol-2-yl)phenyl]acetamides as monoacylglycerol lipase inhibitors with potential anticancer activity” (Eur J Med Chem, 2016).

How the values were obtained:
Assay type in all cases: functional
Settings in all cases: read-out: GI
SF-295 = assay: Growth inhibition of human SF-295 cells at 10 uM incubated for 48 hrs by sulforhodamine B assay relative to control
NCI-H226 = assay: Growth inhibition of human NCI-H226 cells at 10 uM incubated for 48 hrs by sulforhodamine B assay relative to control
OVCAR-4 = assay: Growth inhibition of human OVCAR-4 cells at 10 uM incubated for 48 hrs by sulforhodamine B assay relative to control
NCI-H522 = assay: Growth inhibition of human NCI-H522 cells at 10 uM incubated for 48 hrs by sulforhodamine B assay relative to control
MCF7 = assay: Growth inhibition of human MCF7 cells at 10 uM incubated for 48 hrs by sulforhodamine B assay relative to control
K562 = assay: Growth inhibition of human K562 cells at 10 uM incubated for 48 hrs by sulforhodamine B assay relative to control
PC-3 = assay: Growth inhibition of human PC-3 cells at 10 uM incubated for 48 hrs by sulforhodamine B assay relative to control
ACHN = assay: Growth inhibition of human ACHN cells at 10 uM incubated for 48 hrs by sulforhodamine B assay relative to control
Malme-3M = assay: Growth inhibition of human Malme-3M cells at 10 uM incubated for 48 hrs by sulforhodamine B assay relative to control
HT-29 = assay: Growth inhibition of human HT-29 cells at 10 uM incubated for 48 hrs by sulforhodamine B assay relative to control
SF-268 = assay: Growth inhibition of human SF-268 cells at 10 uM incubated for 48 hrs by sulforhodamine B assay relative to control
BT-549 = assay: Growth inhibition of human BT-549 cells at 10 uM incubated for 48 hrs by sulforhodamine B assay relative to control
NCI-H23 = assay: Growth inhibition of human NCI-H23 cells at 10 uM incubated for 48 hrs by sulforhodamine B assay relative to control
NCI-H322M = assay: Growth inhibition of human NCI-H322M cells at 10 uM incubated for 48 hrs by sulforhodamine B assay relative to control
DU-145 = assay: Growth inhibition of human DU-145 cells at 10 uM incubated for 48 hrs by sulforhodamine B assay relative to control
SK-OV-3 = assay: Growth inhibition of human SK-OV-3 cells at 10 uM incubated for 48 hrs by sulforhodamine B assay relative to control
A549 = assay: Growth inhibition of human A549/ATCC cells at 10 uM incubated for 48 hrs by sulforhodamine B assay relative to control
MDA-MB-231 = assay: Growth inhibition of human MDA-MB-231 cells at 10 uM incubated for 48 hrs by sulforhodamine B assay relative to control
SF-539 = assay: Growth inhibition of human SF-539 cells at 10 uM incubated for 48 hrs by sulforhodamine B assay relative to control
SNB-19 = assay: Growth inhibition of human SNB-19 cells at 10 uM incubated for 48 hrs by sulforhodamine B assay relative to control
TK-10 = assay: Growth inhibition of human TK-10 cells at 10 uM incubated for 48 hrs by sulforhodamine B assay relative to control
UACC-257 = assay: Growth inhibition of human UACC-257 cells at 10 uM incubated for 48 hrs by sulforhodamine B assay relative to control
UO-31 = assay: Growth inhibition of human UO-31 cells at 10 uM incubated for 48 hrs by sulforhodamine B assay relative to control
MDA-MB-468 = assay: Growth inhibition of human MDA-MB-468 cells at 10 uM incubated for 48 hrs by sulforhodamine B assay relative to control
Hs-578T = assay: Growth inhibition of human Hs-578T cells at 10 uM incubated for 48 hrs by sulforhodamine B assay relative to control
OVCAR-5 = assay: Growth inhibition of human OVCAR-5 cells at 10 uM incubated for 48 hrs by sulforhodamine B assay relative to control
KM12 = assay: Growth inhibition of human KM12 cells at 10 uM incubated for 48 hrs by sulforhodamine B assay relative to control
IGROV-1 = assay: Growth inhibition of human IGROV-1 cells at 10 uM incubated for 48 hrs by sulforhodamine B assay relative to control
SN12C = assay: Growth inhibition of human SN12C cells at 10 uM incubated for 48 hrs by sulforhodamine B assay relative to control
SR = assay: Growth inhibition of human SR cells at 10 uM incubated for 48 hrs by sulforhodamine B assay relative to control
HCC 2998 = assay: Growth inhibition of human HCC 2998 cells at 10 uM incubated for 48 hrs by sulforhodamine B assay relative to control
SK-MEL-5 = assay: Growth inhibition of human SK-MEL-5 cells at 10 uM incubated for 48 hrs by sulforhodamine B assay relative to control
OVCAR-8 = assay: Growth inhibition of human OVCAR-8 cells at 10 uM incubated for 48 hrs by sulforhodamine B assay relative to control
OVCAR-3 = assay: Growth inhibition of human OVCAR-3 cells at 10 uM incubated for 48 hrs by sulforhodamine B assay relative to control
UACC-62 = assay: Growth inhibition of human UACC-62 cells at 10 uM incubated for 48 hrs by sulforhodamine B assay relative to control
MOLT-4 = assay: Growth inhibition of human MOLT-4 cells at 10 uM incubated for 48 hrs by sulforhodamine B assay relative to control
T47D = assay: Growth inhibition of human T47D cells at 10 uM incubated for 48 hrs by sulforhodamine B assay relative to control
U-251 = assay: Growth inhibition of human U-251 cells at 10 uM incubated for 48 hrs by sulforhodamine B assay relative to control
HL-60(TB) = assay: Growth inhibition of human HL-60(TB) cells at 10 uM incubated for 48 hrs by sulforhodamine B assay relative to control
RXF 393 = assay: Growth inhibition of human RXF 393 cells at 10 uM incubated for 48 hrs by sulforhodamine B assay relative to control
RPMI-8226 = assay: Growth inhibition of human RPMI-8226 cells at 10 uM incubated for 48 hrs by sulforhodamine B assay relative to control
786-0 = assay: Growth inhibition of human 786-0 cells at 10 uM incubated for 48 hrs by sulforhodamine B assay relative to control
M14 = assay: Growth inhibition of human M14 cells at 10 uM incubated for 48 hrs by sulforhodamine B assay relative to control
MDA-MB-435 = assay: Growth inhibition of human MDA-MB-435 cells at 10 uM incubated for 48 hrs by sulforhodamine B assay relative to control

Compound: O=C(CNc1c(Cl)cccc1Cl)Nc1ccc(-c2nc3ccccc3s2)cc1
- inhibition of growth at 10 µM (SF-295): 2.62%
- inhibition of growth at 10 µM (NCI-H226): 45.6%
- inhibition of growth at 10 µM (OVCAR-4): 82.5%
- inhibition of growth at 10 µM (NCI-H522): 193%
- inhibition of growth at 10 µM (MCF7): 85.4%
- inhibition of growth at 10 µM (K562): 89.5%
- inhibition of growth at 10 µM (PC-3): 14.1%
- inhibition of growth at 10 µM (ACHN): 57.7%
- inhibition of growth at 10 µM (Malme-3M): 150%
- inhibition of growth at 10 µM (HT-29): 30.2%
- inhibition of growth at 10 µM (SF-268): 53.8%
- inhibition of growth at 10 µM (BT-549): 78%
- inhibition of growth at 10 µM (NCI-H23): 59.1%
- inhibition of growth at 10 µM (NCI-H322M): 5.42%
- inhibition of growth at 10 µM (DU-145): 14.3%
- inhibition of growth at 10 µM (SK-OV-3): 2.25%
- inhibition of growth at 10 µM (A549): 14.3%
- inhibition of growth at 10 µM (MDA-MB-231): 43.1%
- inhibition of growth at 10 µM (SF-539): 20.1%
- inhibition of growth at 10 µM (SNB-19): 26.1%
- inhibition of growth at 10 µM (TK-10): -6.12%
- inhibition of growth at 10 µM (UACC-257): 3.54%
- inhibition of growth at 10 µM (UO-31): 26.3%
- inhibition of growth at 10 µM (MDA-MB-468): 107%
- inhibition of growth at 10 µM (Hs-578T): 12.8%
- inhibition of growth at 10 µM (OVCAR-5): -10.4%
- inhibition of growth at 10 µM (KM12): 8.67%
- inhibition of growth at 10 µM (IGROV-1): 50.7%
- inhibition of growth at 10 µM (SN12C): 52%
- inhibition of growth at 10 µM (SR): 89.3%
- inhibition of growth at 10 µM (HCC 2998): 64.4%
- inhibition of growth at 10 µM (SK-MEL-5): 78.8%
- inhibition of growth at 10 µM (OVCAR-8): 33.3%
- inhibition of growth at 10 µM (OVCAR-3): 45.6%
- inhibition of growth at 10 µM (UACC-62): 64.9%
- inhibition of growth at 10 µM (MOLT-4): 94.4%
- inhibition of growth at 10 µM (T47D): 119%
- inhibition of growth at 10 µM (U-251): 72.3%
- inhibition of growth at 10 µM (HL-60(TB)): 29.3%
- inhibition of growth at 10 µM (RXF 393): 13.4%
- inhibition of growth at 10 µM (RPMI-8226): 40.2%
- inhibition of growth at 10 µM (786-0): 75.9%
- inhibition of growth at 10 µM (M14): 44.3%
- inhibition of growth at 10 µM (MDA-MB-435): 32.1%

Compound: CN1CCN(CC(=O)Nc2ccc(-c3nc4ccccc4s3)cc2)CC1
- inhibition of growth at 10 µM (SF-295): 8.86%
- inhibition of growth at 10 µM (NCI-H226): 3.83%
- inhibition of growth at 10 µM (OVCAR-4): 12.7%
- inhibition of growth at 10 µM (NCI-H522): 41.1%
- inhibition of growth at 10 µM (MCF7): 63.2%
- inhibition of growth at 10 µM (K562): 58.2%
- inhibition of growth at 10 µM (PC-3): 16.4%
- inhibition of growth at 10 µM (ACHN): 28.8%
- inhibition of growth at 10 µM (Malme-3M): 1.71%
- inhibition of growth at 10 µM (HT-29): 60.4%
- inhibition of growth at 10 µM (SF-268): 17%
- inhibition of growth at 10 µM (BT-549): 19.4%
- inhibition of growth at 10 µM (NCI-H23): 17.8%
- inhibition of growth at 10 µM (NCI-H322M): 22.1%
- inhibition of growth at 10 µM (DU-145): 14.8%
- inhibition of growth at 10 µM (SK-OV-3): 5.77%
- inhibition of growth at 10 µM (A549): 11.4%
- inhibition of growth at 10 µM (MDA-MB-231): 40.2%
- inhibition of growth at 10 µM (SF-539): 132%
- inhibition of growth at 10 µM (SNB-19): 10.3%
- inhibition of growth at 10 µM (TK-10): 5.2%
- inhibition of growth at 10 µM (UACC-257): -5.35%
- inhibition of growth at 10 µM (UO-31): 42.5%
- inhibition of growth at 10 µM (MDA-MB-468): 111%
- inhibition of growth at 10 µM (Hs-578T): 6.34%
- inhibition of growth at 10 µM (OVCAR-5): 27.1%
- inhibition of growth at 10 µM (KM12): 14.4%
- inhibition of growth at 10 µM (IGROV-1): 19.4%
- inhibition of growth at 10 µM (SN12C): 22.3%
- inhibition of growth at 10 µM (SR): 93.7%
- inhibition of growth at 10 µM (HCC 2998): 22.7%
- inhibition of growth at 10 µM (SK-MEL-5): 26.3%
- inhibition of growth at 10 µM (OVCAR-8): 8.74%
- inhibition of growth at 10 µM (OVCAR-3): 0.78%
- inhibition of growth at 10 µM (UACC-62): 136%
- inhibition of growth at 10 µM (MOLT-4): 22%
- inhibition of growth at 10 µM (T47D): 45.9%
- inhibition of growth at 10 µM (U-251): 32.5%
- inhibition of growth at 10 µM (HL-60(TB)): 3.63%
- inhibition of growth at 10 µM (RXF 393): 45.7%
- inhibition of growth at 10 µM (RPMI-8226): 11.9%
- inhibition of growth at 10 µM (786-0): 21.3%
- inhibition of growth at 10 µM (M14): 32.4%
- inhibition of growth at 10 µM (MDA-MB-435): 74.6%
